Where two headings read alike, the source gives them in different places.
How the values were obtained:
[1] = test system: LPS-induced NO production in RAW 264.7 cells; test: NO assay: nitrite quantification (Griess) in LPS-stimulated macrophages; format: cell-based, murine; conditions: Mus musculus, RAW264.7, LPS 200 ng/mL, 24 h, read-out: EC50 against NO assay
Protocol: NO2^− accumulation was used as an indicator of NO production as described previously. RAW 264.7 cells were plated at 5 × 10^5 cells/mL, pre-treated with various concentrations (0.3, 1, 3, 10 or 30 μg/mL) of 1–7 and stimulated with LPS (200 ng/mL) for 24 h. The supernatants were mixed with an equal volume of Griess reagent (1% sulfanilamide, 0.1% naphthylethylenediamine dihydrochloride and 2% phosphoric acid) and incubated at room temperature for 10 min. NaNO2 was used to generate a standard curve, and the concentration of nitrite in the medium was determined by measuring optical density at 540 nm. Cell viability was determined by XTT assay as described previously. And it was confirmed that the concentration of compounds used in this study has no significant effect on cell viability.

[2] = Stability to light and on storage (observation)

SMILES | EC50 ([1]; compounds 0.3-30 μg/mL) | EC50 [1] | storage stability ([2]; in the dark and fridge) | stability under the light ([2]; under the light) | colour change of yellow needle form in light ([2]; day light as well as fluorescent light, also previously reported [9]) | colour change in hydrophilic solvents under the light ([2]; methanol and dimethyl sulfoxide, under the light)
CC(OC(=O)c1ccccc1N)c1cccc2nc3c(C(=O)O)cccc3nc12 (centres unmarked) [Compound 1, 6-[1-(2-aminobenzoyloxy)ethyl]-1-phenazinecarboxylic acid] | 18.1 µg/mL | 46.8 µM | changelessly stored in the dark and fridge for several weeks | easily changed under the light | – | –
C[C@@H](O)c1cccc2nc3c(C(N)=O)cccc3nc12 [Compound 2, saphenic amide] | > 30 µg/mL | – | – | – | – | –
C[C@@H](O)c1cccc2nc3c([C@@H](C)O)cccc3nc12 [Compound 3, saphenol] | 14.7 µg/mL | 54.7 µM | – | – | – | –
C[C@@H](O)c1cccc2nc3c(C(=O)O)cccc3nc12 [Compound 4, (R)-saphenic acid] | 6.15 µg/mL | 22.9 µM | – | – | turned brown after several hours | quickly turned from yellow into orange
O=C(O)c1cccc2nc3ccccc3nc12 [Compound 5, phenazine-1-carboxylic acid] | 17.1 µg/mL | 76.1 µM | – | – | – | –
CO[C@H](C)c1cccc2nc3c(C(=O)O)cccc3nc12 [Compound 6] | 5.53 µg/mL | 19.6 µM | – | – | – | –
CC(=O)c1cccc2nc3c(C(=O)O)cccc3nc12 [Compound 7, 6-acetyl-phenazine-1-carboxylic acid] | 5.32 µg/mL | 20 µM | – | – | – | –

Source: PMC6722648, “Phenazine Derivatives with Anti-Inflammatory Activity from the Deep-Sea Sediment-Derived Yeast-Like Fungus Cystobasidium laryngis IV17-028” (Marine Drugs, 2019)
